Measurements taken from patent publication US9540343B2 (Gilead Sciences, Inc., priority 2011, dated 2017).

Assays:
HIV-IIIb = experiment: Test A: Antiviral assay in MT4 cells; assay type: cell-based, HIV-1; conditions: Human immunodeficiency virus 1, IIIB, MT4, 120 h, read-out: % inhibition at 2 μM, percent inhibition of virus-induced cell killing, from dose response curve at 2 uM drug; MT-4 cells infected with HIV-IIIb, 5 days, CellTiter-Glo
in vitro = conditions: human, uninfected MT-4 cells, CC50 (nM), same protocol as Test A, CellTiter-Glo
Summary of the method: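 Cytoprotection read-out: CellTiter-Glo chemiluminescence after 5 days at 37 °C of HIV-IIIb-infected MT-4 cells (m.o.i. 0.003) with compound in 10-point 3-fold dilutions, quadruplicate, 10% FBS. Cytotoxicity (CC50) measured identically without virus.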

| Structure (SMILES) | inhibition at 2 µM (HIV-IIIb) | CC50 at 5 days (in vitro) |
| --- | --- | --- |
| NC(=O)c1cc(-c2cccnc2[C@H](Cc2cc(F)cc(F)c2)NC(=O)Cn2nc(C(F)F)c(Br)c2C(F)F)ccc1F [Example 555C, (S)-5-(2-(1-(2-(4-bromo-3,5-bis(difluoromethyl)-1H-pyrazol-1-yl)acetamido)-2-(3,5-difluorophenyl)ethyl)pyridin-3-yl)-2-fluorobenzamide] | 14% | 25500 nM |
| COc1ccc(-c2cccnc2[C@H](Cc2cccc(F)c2)NC(=O)Cn2nc(C(F)(F)F)c3c2CCCC3)cc1 [Example 29, (S)—N-(2-(3-fluorophenyl)-1-(3-(4-methoxyphenyl)pyridin-2-yl)ethyl)-2-(3-(trifluoromethyl)-4,5,6,7-tetrahydro-1H-indazol-1-yl)acetamide] | 36% | 13200 nM |
| CC(C)(C)OC(=O)N1C[C@@H](Oc2ccccc2)C[C@H]1C(=O)N[C@@H](Cc1cc(F)cc(F)c1)c1ncccc1-c1ccc(F)c(C(N)=O)c1 [Example 161, (2S,4S)-tert-butyl 2-((S)-1-(3-(3-carbamoyl-4-fluorophenyl)pyridin-2-yl)-2-(3,5-difluorophenyl)ethylcarbamoyl)-4-phenoxypyrrolidine-1-carboxylate] | 0% | 9310 nM |
| O=C(Cn1nc(C(F)(F)F)c2c1CCCC2)N[C@@H](Cc1cc(F)cc(F)c1)c1nc[nH]c(=O)c1-c1ccc(Cl)cc1 [Example 301B, (S)—N-(1-(5-(4-chlorophenyl)-6-oxo-1,6-dihydropyrimidin-4-yl)-2-(3,5-difluorophenyl)ethyl)-2-(3-(trifluoromethyl)-4,5,6,7-tetrahydro-1H-indazol-1-yl)acetamide] | 0% | 5650 nM |
| NC(=O)c1cccc(-c2cccnc2[C@H](Cc2cc(F)cc(F)c2)NC(=O)Cc2c[nH]c3cc(F)ccc23)c1 [Example 86, (S)-3-(2-(2-(3,5-difluorophenyl)-1-(2-(6-fluoro-1H-indol-3-yl)acetamido)ethyl)pyridin-3-yl)benzamide] | 97% | 21400 nM |
| Cc1ccc(-c2cccnc2[C@H](Cc2cc(F)cc(F)c2)NC(=O)Cc2c[nH]c3ccc(F)cc23)cc1 [Example 69, (S)—N-(2-(3,5-difluorophenyl)-1-(3-p-tolylpyridin-2-yl)ethyl)-2-(5-fluoro-1H-indol-3-yl)acetamide] | 84% | 6690 nM |
| NC(=O)c1cc(-c2cccnc2[C@H](Cc2cc(F)cc(F)c2)NC(=O)Cn2nc(C(F)F)c3c2CC2CC32)ccc1F (single isomer, unassigned) [Example 248] | 88% | 26500 nM |
| O=C(Cn1nc(C(F)(F)F)c2c1CCCC2)N[C@@H](Cc1cc(F)cc(F)c1)c1ncccc1-c1cnc2[nH]ccc2c1 [Example 407, (S)—N-(1-(3-(1H-pyrrolo[2,3-b]pyridin-5-yl)pyridin-2-yl)-2-(3,5-difluorophenyl)ethyl)-2-(3-(trifluoromethyl)-4,5,6,7-tetrahydro-1H-indazol-1-yl)acetamide] | 102% | 12000 nM |
| NC(=O)c1cc(-c2cccnc2[C@H](Cc2cc(F)cc(F)c2)NC(=O)Cn2nc(C(F)F)c3c2C(F)(F)CCC3=O)ccc1F [Example 285G, (S)-5-(2-(1-(2-(3-(difluoromethyl)-7,7-difluoro-4-oxo-4,5,6,7-tetrahydro-1H-indazol-1-yl)acetamido)-2-(3,5-difluorophenyl)ethyl)pyridin-3-yl)-2-fluorobenzamide] | 58% | 48500 nM |
| NC(=O)c1cccc(-c2cccnc2[C@H](Cc2cc(F)cc(F)c2)NC(=O)Cn2c(C(F)(F)F)nc3ccc(OC(F)(F)F)cc32)c1 [Example 315, (S)-3-(2-(2-(3,5-difluorophenyl)-1-(2-(6-(trifluoromethoxy)-2-(trifluoromethyl)-1H-benzo[d]imidazol-1-yl)acetamido)ethyl)pyridin-3-yl)benzamide] | 0% | 47200 nM |
| Cc1ccccc1-c1cccnc1C(Cc1ccccc1)NC(=O)Cn1nc(C(F)(F)F)c2c1CCCC2 (stereo not drawn) [Example 2, N-(2-phenyl-1-(3-(o-tolyl)pyridin-2-yl)ethyl)-2-(3-(trifluoromethyl)-4,5,6,7-tetrahydro-1H-indazol-1-yl)acetamide] | 29% | 14000 nM |
| NC(=O)c1cc(-c2cccnc2[C@H](Cc2cc(F)cc(F)c2)NC(=O)Cn2nc(C(F)F)c3c2C(F)(F)CCC3O)ccc1F (stereo partly drawn) [Example 334, 5-(2-((1S)-1-(2-(3-(difluoromethyl)-7,7-difluoro-4-hydroxy-4,5,6,7-tetrahydro-1H-indazol-1-yl)acetamido)-2-(3,5-difluorophenyl)ethyl)pyridin-3-yl)-2-fluorobenzamide] | 63% | 26500 nM |
| NC(=O)c1cc(-c2cccnc2[C@H](Cc2cc(F)cc(F)c2)NC(=O)Cn2nc(C(F)(F)F)c3c2C2CC2C3O)ccc1F (stereo partly drawn) [Example 457, 5-(2-((1S)-2-(3,5-difluorophenyl)-1-(2-(4-hydroxy-3-(trifluoromethyl)-4,4-a,5,5a-tetrahydro-1H-cyclopropa[4,5]cyclopenta[1,2-c]pyrazol-1-yl)acetamido)ethyl)pyridin-3-yl)-2-fluorobenzamide] | 64% | > 53200 nM |
| CC(C)(C)NC(=O)c1cc(-c2cccnc2[C@H](Cc2cc(F)cc(F)c2)NC(=O)Cc2c[nH]c3ccc(F)cc23)ccc1F [Example 417, (S)—N-tert-butyl-5-(2-(2-(3,5-difluorophenyl)-1-(2-(5-fluoro-1H-indol-3-yl)acetamido)ethyl)pyridin-3-yl)-2-fluorobenzamide] | 8% | 12800 nM |
| NC(=O)c1cc(-c2cccnc2[C@H](Cc2cccc(F)c2)NC(=O)CN2CC(=O)Nc3ccccc32)ccc1F [Example 264, (S)-2-fluoro-5-(2-(2-(3-fluorophenyl)-1-(2-(3-oxo-3,4-dihydroquinoxalin-1(2H)-yl)acetamido)ethyl)pyridin-3-yl)benzamide] | 24% | > 53200 nM |
| Cc1ccccc1-c1cccnc1[C@H](Cc1cccc(F)c1)NC(=O)Cn1nc(C(F)(F)F)c2c1CCCC2 [Example 25, (S)—N-(2-(3-fluorophenyl)-1-(3-o-tolylpyridin-2-yl)ethyl)-2-(3-(trifluoromethyl)-4,5,6,7-tetrahydro-1H-indazol-1-yl)acetamide] | 71% | 11900 nM |
| Cc1cc2[nH]cc(CC(=O)N[C@@H](Cc3cc(F)cc(F)c3)c3ncccc3-c3cccc(C(N)=O)c3)c2cc1OCc1ccccc1 [Example 536I, (S)-3-(2-(1-(2-(5-(benzyloxy)-6-methyl-1H-indol-3-yl)acetamido)-2-(3,5-difluorophenyl)ethyl)pyridin-3-yl)benzamide] | 12% | 8600 nM |
| NC(=O)c1cc(-c2cccnc2[C@H](Cc2cccc(F)c2)NC(=O)Cn2nc(C(F)(F)F)c3c2CCS(=O)(=O)C3)ccc1F [Example 204, (S)-5-(2-(1-(2-(5,5-dioxido-3-(trifluoromethyl)-6,7-dihydrothiopyrano[4,3-c]pyrazol-1(4H)-yl)acetamido)-2-(3-fluorophenyl)ethyl)pyridin-3-yl)-2-fluorobenzamide] | 1% | > 53200 nM |
| COCc1cn(CC(=O)N[C@@H](Cc2cc(F)cc(F)c2)c2ncccc2-c2ccc(F)c(C(N)=O)c2)nc1C(F)(F)F [Example 361, (S)-5-(2-(2-(3,5-difluorophenyl)-1-(2-(4-(methoxymethyl)-3-(trifluoromethyl)-1H-pyrazol-1-yl)acetamido)ethyl)pyridin-3-yl)-2-fluorobenzamide] | 8% | > 53200 nM |
| O=C(Cn1nc(C(F)F)cc1C(F)F)N[C@@H](Cc1cc(F)cc(F)c1)c1ncccc1-c1cnc2[nH]ccc2c1 [Example 512C, (S)—N-(1-(3-(1H-pyrrolo[2,3-b]pyridin-5-yl)pyridin-2-yl)-2-(3,5-difluorophenyl)ethyl)-2-(3,5-bis(difluoromethyl)-1H-pyrazol-1-yl)acetamide] | 60% | 19900 nM |
| O=C(Cn1nc(C(F)F)c2c1C(F)(F)C1CC21)N[C@@H](Cc1cc(F)cc(F)c1)c1ncncc1-c1ccc2cnccc2c1 (stereo partly drawn) [Example 131C, 2-(3-(difluoromethyl)-5,5-difluoro-3b,4,4a,5-tetrahydro-1H-cyclopropa[3,4]cyclopenta[1,2-c]pyrazol-1-yl)-N—((S)-2-(3,5-difluorophenyl)-1-(5-(isoquinolin-6-yl)pyrimidin-4-yl)ethyl)acetamide] | 47% | 10400 nM |
| O=C(Cc1n[nH]c2ccccc12)NC(Cc1cc(F)cc(F)c1)c1nccnc1-c1ccc(Cl)cc1 (stereo not drawn) [Example 447, N-(1-(3-(4-chlorophenyl)pyrazin-2-yl)-2-(3,5-difluorophenyl)ethyl)-2-(1H-indazol-3-yl)acetamide] | 0% | 13000 nM |
| O=C(Cn1nc(C(F)F)c2c1C(F)(F)C1CC21)N[C@@H](Cc1cc(F)cc(F)c1)c1ncccc1-c1cccc2ncccc12 (stereo partly drawn) [Example 420, (S)—N-(1-(3-(isoquinole-5-yl)-pyridin-2-yl)-2-(3,5-difluorophenyl)ethyl)-2-(3-(difluoromethyl)-5,6-dihydro-4,5-(methano)-6,6-difluoro-cyclopenta[c]pyrazol-1(4H)-yl)acetamide] | 110% | 18700 nM |
| NC(=O)c1cc(-c2cccnc2C(Cc2cc(F)cc(F)c2)NC(=O)Cn2nc(C(F)F)c3c2C2CC2CC3)ccc1F (stereo not drawn) [Example 392, 5-(2-(1-(2-(3-(difluoromethyl)-5,5a,6,6a-tetrahydrocyclopropa[g]indazol-1(4H)-yl)acetamido)-2-(3,5-difluorophenyl)ethyl)pyridin-3-yl)-2-fluorobenzamide] | 105% | 19100 nM |
